In this assay the target is T1, human GnRH receptor (Homo sapiens, UniProt P30968).
T1 construct: expressed in transfected cells; membrane preparations
T1 sequence (P30968 1-328): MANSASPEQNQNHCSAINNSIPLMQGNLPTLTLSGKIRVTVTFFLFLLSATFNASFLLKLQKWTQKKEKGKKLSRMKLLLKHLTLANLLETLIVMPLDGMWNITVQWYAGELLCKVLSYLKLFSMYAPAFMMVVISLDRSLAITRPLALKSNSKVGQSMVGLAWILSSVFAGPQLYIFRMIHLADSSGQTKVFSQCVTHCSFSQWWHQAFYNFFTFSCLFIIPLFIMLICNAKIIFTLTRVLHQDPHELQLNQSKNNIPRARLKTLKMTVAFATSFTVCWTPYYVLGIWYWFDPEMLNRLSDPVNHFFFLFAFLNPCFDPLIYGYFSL
Briefly: peptide competitive human receptor binding assays (radioligand displacement). The note with it: tested in one or more of the peptide competitive human receptor binding assays. The protocol:
HEK293 cells stably transfected with the human GnRH receptor are grown for two days after achieving confluence then are harvested by striking tissue culture flasks against a firm surface. Cells are collected by centrifugation at 1000 g for […]. Cell pellets are resuspended in 5% sucrose and homogenized using a polytron homogenizer for two 15 second homogenization steps. Cell homogenates are then centrifuged for 5 minutes at 3000 g to remove nuclei and the supernatant subsequently centrifuged for 30 minutes at 44,000 g to collect the membrane fraction. The membrane pellet is resuspended in GnRH binding buffer (10 mM HEPES, pH 7.5, 150 mM NaCl and 0.1% BSA) and aliquots immediately snap-frozen in liquid nitrogen and stored at −80° C. Protein content of the membrane suspension is determined using the Bio-Rad protein assay kit (Bio-Rad).
RBL cells stably transfected with the human GnRH receptor are grown to 80% confluency prior to harvesting. The cells are incubated at 37° C. for 10 min in 0.5 mM EDTA/PBS (Ca^++, Mg^++ free), and are dislodged from the plate by gentle rapping of the flasks. Cells are collected and pelleted by centrifugation at 1000 g for 5 minutes. Cell pellets are resuspended in buffer (DPBS supplemented with 10 mM MgCl2, 2 mM EGTA, pH=7.4), and cell lysis is performed using a pressure cell and applying N2 at a pressure of 900 psi for 30 min at 4° C. Unbroken cells and larger debris were removed by centrifugation at 1200 g for 10 min at 4° C. The cell membrane supernatant is then centrifuged at 45,000 g and the resulting membrane pellet is resuspended in assay buffer and homogenized on ice using a tissue homogenizer. Protein concentrations are determined using the Coomassie Plus Protein Reagent kit. Membranes are aliquoted and stored at −80° C. until ready for use.
Radioligand binding displacement assays using the peptide radioligands are performed in buffer containing 10 mM HEPES, 150 mM NaCl and 0.1% BSA, pH=7.5. Radioligand binding assays employing the use of [^3H]-1-(2,6-difluorobenzyl)-3-[(2R)-amino-2-phenethyl]-5-(2-fluoro-3-methoxyphenyl)-6-methyluracil (here the 3-methoxy group is tritiated) are run in buffer containing 50 mM Tris, 150 mM NaCl, 5 mM MgCl2, 0.01% saponin and 0.5 mM EDTA, pH=7.5. Radioligand displacement assays are performed by incubating radioligand ([^125I-Tyr^5, DLeu^6, NMeLeu^7, Pro^9-NEt]GnRH (0.1 nM), [His^5, ^125I-DTyr^6]GnRH (0.2 nM) (31) or [^3H]-1-(2,6-difluorobenzyl)-3-[(2R)-amino-2-phenethyl]-5-(2-fluoro-3-methoxyphenyl)-6-methyluracil (1 nM)), unlabeled competitors at concentrations ranging from 0.3 pM to 10 μM, and membranes for 2 hrs at rt. 10 to 20 μg protein/well is used from membrane preparations for human, monkey and rabbit GnRH receptor. 5 μg/well and 60 μg/well of membranes are used for rat and dog GnRH receptors, respectively. Binding assays are performed in either Millipore 96-well GF/C filtration plates (for ([^125I-Tyr^5, DLeu^6, NMeLeu^7, Pro^9-NEt]GnRH assays), or in 96 well low binding plates, which are subsequently filtered onto GF/C Unifilters. Filters are pretreated with 0.5% PEI for 30 min prior to use. Reactions are terminated by rapid vacuum filtration, and the filters are washed twice with 250 μL ice cold PBS pH=7.4 (0.01% Tween-20 is included in wash media for [His^5, ^125I-DTyr^6]GnRH and [^3H]-1-(2,6-difluorobenzyl)-3-[(2R)-amino-2-phenethyl]-5-(2-fluoro-3-methoxyphenyl)-6-methyluracil radioligands). The filters are dried, and the Millipore filters are monitored for radioactivity using a Cobra II gamma counter (Perkin Elmer Life Sciences). For assays filtered onto the GF/C Unifilter plates, 50 μL scintillation fluid is added to each filter, and radioactivity is monitored using a TopCount NXT. For iodinated radioligands, total radioligand is monitored on a gamma counter, and for the tritiated radioligand, total radioligand is monitored using a Perkin Elmer 1600TR liquid scintillation counter. […]
(Loss of bound radioactivity is the signal in a displacement assay; it reports binding, not function.)

Some results are limits rather than exact numbers.

For orientation: Ki means the dissociation constant of the complex between target and ligand, obtained from inhibition or displacement. A high value points to a looser hold on the target.

Turning to `Cc1cc(C#N)ncc1-c1cc(S(=O)(=O)N2CCCCc3ccccc32)c(OCCCO)cc1Cl` [Example 9-1, 5-[2-chloro-4-(3-hydroxy-propoxy)-5-(2,3,4,5-tetrahydro-benzo[b]azepine-1-sulfonyl)-phenyl]-4-methyl-pyridine-2-carbonitrile], the inhibition constant (Ki) is ≤ 100 nM. Take `COc1cc(Cl)c(-c2cnc(C(F)(F)F)cc2C#N)cc1S(=O)(=O)N1CCCCc2ccccc21` [Example 15-17]: the inhibition constant (Ki) was ≤ 100 nM.

On to `COc1cc(Cl)c(-c2cnc(C(F)(F)F)cc2C#N)cc1S(=O)(=O)N(C)c1ccc(Cl)c(Cl)c1` [Example 15-8], for which the Ki is ≤ 100 nM.

For `Cc1cc(Cl)ncc1-c1cc(S(=O)(=O)N2CCC(C)(C)c3ccccc32)ccc1Cl` [Example 4-5], the Ki was ≤ 100 nM. With `COc1cc(Cl)c(-c2cnc(C(F)(F)F)cc2C#N)cc1S(=O)(=O)N(C)CC(C)(C)C` [Example 15-30] the figure was ≤ 100 nM; with `COc1cccc(N(C)S(=O)(=O)c2cc(-c3cnc(C(F)(F)F)cc3C#N)c(Cl)cc2OC)n1` [Example 15-20], ≤ 100 nM; with `CC1(C)CCN(S(=O)(=O)c2cc(-c3cnc(C(F)(F)F)cc3C#N)c(Cl)cc2OCCC(=O)O)c2ccccc21` [Example 12-3, 3-[5-chloro-4-(4-cyano-6-trifluoromethyl-pyridin-3-yl)-2-(4,4-dimethyl-3,4-dihydro-2H-quinoline-1-sulfonyl)-phenoxy]-propionic acid], ≤ 100 nM. With `CC(C)(C)OC(=O)COc1cc(Cl)c(-c2cnc(C(F)(F)F)cc2C#N)cc1S(=O)(=O)N1CCCCc2ccccc21` [Example 6-5] the figure was ≤ 100 nM; with `Cc1cc(Cl)ncc1-c1cc(S(=O)(=O)N2CCOc3ccccc32)ccc1Cl` [Example 4-4], ≤ 100 nM; with `COc1cc(Cl)c(-c2cnc(C(F)(F)F)cc2C#N)cc1S(=O)(=O)N(C)Cc1cccc(F)c1` [Example 15-34], ≤ 100 nM. With `COC(=O)Cc1cc(Cl)c(-c2cnc(C(F)(F)F)cc2C#N)cc1S(=O)(=O)N1CCC(C)(C)c2ccccc21` [Example 16-1, [5-Chloro-4-(4-cyano-6-trifluoromethyl-pyridin-3-yl)-2-(4,4-dimethyl-3,4-dihydro-2H-quinoline-1-sulfonyl)-phenyl]-acetic acid methyl ester], the Ki was ≤ 100 nM. In the case of `COc1ccccc1N(C)S(=O)(=O)c1cc(-c2cnc(C(F)(F)F)cc2C#N)c(Cl)cc1OC` [Example 15-16] it was ≤ 100 nM; in that of `Cc1cc(C(F)(F)F)ncc1-c1cc(S(=O)(=O)N2CCCc3ccccc32)ccc1Cl` [Example 4-10], ≤ 100 nM.

As to `N#Cc1cc(C(F)(F)F)ncc1-c1cc(S(=O)(=O)N2CCCCc3ccccc32)ccc1Cl` [Example 4-13], the inhibition constant Ki is ≤ 100 nM.

On to `Cc1cc(Cl)ncc1-c1cc(S(=O)(=O)N2CCCC(=O)c3ccccc32)ccc1Cl` [Example 4-2], for which the inhibition constant (Ki) is ≤ 100 nM. In the case of `COc1cc(Cl)c(-c2cnc(C(F)(F)F)cc2C#N)cc1S(=O)(=O)N(C)Cc1ccc(F)cc1` [Example 15-33] it was ≤ 100 nM; in that of `CC1(C)CCN(S(=O)(=O)c2cc(-c3cnc(C(F)(F)F)cc3C#N)c(Cl)cc2OCCCCO)c2ccccc21` [Example 11-1, 5-[2-chloro-5-(4,4-dimethyl-3,4-dihydro-2H-quinoline-1-sulfonyl)-4-(4-hydroxy-butoxy)-phenyl]-2-trifluoromethyl-isonicotinonitrile], ≤ 100 nM. In the case of `Cc1cccc2c1N(S(=O)(=O)c1ccc(Cl)c(-c3cnc(C(F)(F)F)cc3C#N)c1)CCC2` [Example 4-14] it was ≤ 100 nM; in that of `COc1cc(Cl)c(-c2cnc(C(F)(F)F)cc2C#N)cc1S(=O)(=O)N(C)c1ccc(Cl)cc1` [Example 15-10], ≤ 100 nM; in that of `COc1cc(Cl)c(-c2cnc(C(F)(F)F)cc2C#N)cc1S(=O)(=O)N(C)[C@H](C)c1ccccc1` [Example 15-43], ≤ 100 nM. In the case of `N#Cc1cc(C(F)(F)F)ncc1-c1cc(S(=O)(=O)N2CCCOc3ccccc32)ccc1Cl` [Example 4-24] it was ≤ 100 nM; in that of `CC(C)(C)OC(=O)CCCOc1cc(Cl)c(-c2cnc(C(F)(F)F)cc2C#N)cc1S(=O)(=O)N1CCCCc2ccccc21` [Example 6-1, 4-[5-chloro-4-(4-cyano-6-trifluoromethyl-pyridin-3-yl)-2-(2,3,4,5-tetrahydro-benzo[b]azepine-1-sulfonyl)-phenoxy]-butyric acid tert-butyl ester], ≤ 100 nM; in that of `COc1cc(Cl)c(-c2cnc(C(F)(F)F)cc2C#N)cc1S(=O)(=O)N(C)c1cccc(Cl)c1` [Example 15-3], ≤ 100 nM. For the compound `N#Cc1cc2ccccc2nc1-c1cc(S(=O)(=O)N2CCCCc3ccccc32)c(OCCCC(=O)O)cc1Cl` [Example 7-4], the Ki is ≤ 100 nM. As to `Cc1cc(C(F)(F)F)ncc1-c1cc(S(=O)(=O)N2CCOc3ccccc32)ccc1Cl` [Example 4-11], the Ki is ≤ 100 nM. In the case of `COc1cc(Cl)c(-c2cnc(C(F)(F)F)cc2C#N)cc1S(=O)(=O)N(C)Cc1ccco1` [Example 15-39], the Ki was ≤ 100 nM. In the case of `N#Cc1cc2ccccc2nc1-c1cc(S(=O)(=O)N2CCCCc3ccccc32)c(O)cc1Cl` [Example 8-3] it was ≤ 100 nM; in that of `COc1cc(Cl)c(-c2cnc(C(F)(F)F)cc2C#N)cc1S(=O)(=O)N(C)Cc1cccc(C)n1` [Example 15-38], ≤ 100 nM; in that of `COc1cc(Cl)c(-c2cnc(C(F)(F)F)cc2C#N)cc1S(=O)(=O)N(C)c1cccc(F)c1` [Example 15-11], ≤ 100 nM. In the case of `N#Cc1cc(C(F)(F)F)ncc1-c1cc(S(=O)(=O)N2CCCCc3ccccc32)c(O)cc1Cl` [Example 8-2] it was ≤ 100 nM; in that of `CC1(C)CCN(S(=O)(=O)c2cc(-c3cnc(C(F)(F)F)cc3C#N)c(Cl)cc2OCC(=O)O)c2ccccc21` [Example 12-2, [5-chloro-4-(4-cyano-6-trifluoromethyl-pyridin-3-yl)-2-(4,4-dimethyl-3,4-dihydro-2H-quinoline-1-sulfonyl)-phenoxy]-acetic acid], ≤ 100 nM. Turning to `Cc1cc(C(F)(F)F)nc(=O)n1-c1cc(S(=O)(=O)N2CCCCc3ccccc32)ccc1Cl` [Example 13-1, 1-[2-chloro-5-(2,3,4,5-tetrahydro-benzo[b]azepine-1-sulfonyl)-phenyl]-6-methyl-4-trifluoromethyl-1H-pyrimidin-2-one], the inhibition constant (Ki) is ≤ 100 nM. In the case of `COc1cc(Cl)c(-c2cnc(C(F)(F)F)cc2C#N)cc1S(=O)(=O)N(C)Cc1ccccc1F` [Example 15-35] it was ≤ 100 nM; in that of `Cc1cc(Cl)ncc1-c1cc(S(=O)(=O)N2CCCCc3ccccc32)ccc1Cl` [Example 4-1, 1-[4-chloro-3-(6-chloro-4-methyl-pyridin-3-yl)-benzenesulfonyl]-2,3,4,5-tetrahydro-1H-1-benzazepine], ≤ 100 nM; in that of `COc1ccccc1CN(C)S(=O)(=O)c1cc(-c2cnc(C(F)(F)F)cc2C#N)c(Cl)cc1OC` [Example 15-29], ≤ 100 nM.

The values are drawn from US8507536B2, “Gonadotropin-releasing hormone receptor antagonists and methods relating thereto” (Neurocrine Biosciences, Inc., priority 2007, dated 2013).
